In PubChem BioAssay AID651729 (NMMLSC, 2012):

System: AM2.2 cells FAP-GPR32, fluorogen binding, flow cytometry MCF
Assay: interference with FAP fluorogen signal – AM2.2 cells, flow cytometry, powder set 2, counter-screen for beta2AR agonist internalization project, dose response (AID 651729)

Compound	EC50
CCOC(=O)c1ccc(NC(=O)Cn2nnc(-c3ccccc3)n2)cc1	134 nM
CC(=O)Nc1ccc(S(=O)(=O)NCCc2csc(-c3cccnc3)n2)cc1	11 nM
CN(CC(=O)N1CCN(c2ccccn2)CC1)S(=O)(=O)c1ccc(Cl)cc1	5.23 nM
CCOC(=O)c1ccc(NC(=O)COc2ccc(S(=O)(=O)N3CCCC3)cc2)cc1	124 nM
